Laboratory results: PubChem BioAssay AID1053192 (Broad Institute, 2014)
Results filed as inconclusive are left out. Activity calls are given as the source filed them.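 How the source made its calls: active means cytotoxic compounds whose falling curve has a midpoint dose at most twice the top valid dose; inconclusive means flat fit losing 30 to 70% signal, or poor fit; inactive means the rest.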

Tested on: not listed separately
Test: viability loss in HepG2 hepatoma cells – cell-based, CellTiter-Glo luminescence, 72 h, dry powder, cytotoxicity control, dose response (AID 1053192)
Details: HepG2 viability, CellTiter-Glo ATP luminescence, 72 h; at 50 µM (top of the series)

SMILES | activity change, negative = cytotoxicity
Cc1cc2cc(CNC(=O)Nc3ccc(Cl)c(Cl)c3)ccc2n1C | -3.46% (inactive)
Cc1cccc(NC(=O)NCc2ccc3c(c2)cc(C)n3C)c1 | -2.27% (inactive)
Cc1cc(C)c(S(=O)(=O)NCCn2c(C)cc3ccccc32)c(C)c1 | 18.2% (inactive)
CCc1cccc2c1NC1(CCCC1)CC2C (configuration not stated) | -13.5% (inactive)
CNc1ccccc1C(C)(C)c1cc(-c2cccc(OC)c2)no1 | -1.6% (inactive)
Cc1ccc(CSc2nc3[nH]ncc3c(=O)[nH]2)cc1 | -34.4% (inactive)
O=C(c1c(F)cccc1F)N(Cc1ccccc1)Cc1ccccc1 | -4.81% (inactive)
Cc1cc2ccccc2n1CCNC(=O)COc1ccc2ccccc2c1 | 21.7% (inactive)
O=C(O)C1CCN(c2nc(-c3ccccc3)c3cc(Br)ccc3n2)CC1 | 1.7% (inactive)
COc1ccc(Nc2ccccc2N)cc1 | 4.91% (inactive)
Cc1ccc(S(=O)(=O)NCc2ccc3c(c2)cc(C)n3C)cc1 | -22.2% (inactive)

Tested on: HepG2 viability, CellTiter-Glo ATP luminescence, 72 h
Test: as above
Details: not given

SMILES | AC50
OCc1ccc(-c2nn(Cc3ccccc3)c3ccccc23)o1 | 8.07 µM
